# Source: patent publication US20260199325A1, “NOVEL SUBSTITUTED PYRAZINE-CARBOXAMIDE-IMIDAZOPYRIDINE DERIVATIVES” (Boehringer Ingelheim International GmbH, priority 2022, published 2026)
# pIC50: −log10 of the molar value.
# Biological target: T1, human metabotropic Glutamate 4 receptor (Homo sapiens, UniProt Q14833)
# T1 construct: expressed in transfected cells; host or cells: HEK293
# Experiment: In vitro testing of mGluR4 potency (Assay A), cAMP HTRF in HEK293 cells
# Format: cell-based
# Details: Table 2; HEK293 cell overexpressing human mGluR4; 10 uM L-Glutamic acid, 1 uM forskolin
# Procedure: A. In Vitro Testing of mGluR4 Potency
# The in vitro activity of the compounds according to the invention may be investigated as follows:
# The HEK293 cell overexpressing the human metabotropic Glutamate 4 receptor were thawed at 37° C. and immediately diluted with cell culture medium. After centrifugation, the cell pellet is re-suspended in medium and then distributed from a stirred spinner flask into the wells of the assay plate. The plates are incubated for one hour at room temperature before they are incubated for 24 hours at 37° C./5% C02. After washing the cells in the plate three times with 80 uL HBSS/HEPES buffer (10 uL buffer remained in the wells after washing), 5 uL per well of compounds diluted in HBSS/HEPES buffer containing 0.2% BSA (final concentration: 0.1%) and 1 mM IBMX (final concentration: 0.5 mM) are added to the wells of the assay plate. Thereafter 5 uL per well of L-Glutamic acid (final concentration: 10 uM), forskolin (final concentration: 1 uM) and 1 mM IBMX (final concentration: 0.5 mM) dissolved in HBSS/HEPES buffer containing 0.2% BSA (final concentration: 0.1%) are added to the assay plate (final DMSO concentration: 1%). Several wells of the assay plate are used either for the positive and the negative controls or for the cAMP standard curve. The assay plate is incubated for 30 minutes at room temperature. Then 5 ul per well of Anti-cAMP-Antibody-d2 solution and 5 ul per well of cAMP-Europium Cryptate dilution are added to all wells of the plate and the plate is incubated another 60 minutes light protected at room temperature. The emission at 615 nm and 665 nm (Excitation wavelength: 320 nm) are measured on the EnVision™ reader (PerkinElmer). The ratio between the emission at 665 nm and 615 is calculated by the reader. The whole assay is performed in the dark or under green light.
# The cAMP standard is prepared by diluting the cAMP stock solution with HBSS/Hepes buffer: 5 μl/well of the cAMP dilutions (in HBSS/Hepes buffer containing 1 mM IBMX and 0.2% BSA-final concentration: 0.5 mM IBMX and 0.1% BSA) are added to 10 ul/well HBSS/Hepes buffer plus 5 ul/well 4% DMSO in HBSS/Hepes containing 0.2% BSA (final DMSO concentration: 1%-like in the wells containing compounds) in the wells of the assay plate. The final cAMP concentrations in the assay plate were: 0, 0.17, 0.69, 2.78, 11.1, 44.5, 178, and 712 nM (two wells/cAMP concentration).
# Each assay microtiter plate contained also wells with vehicle controls instead of compound as controls for L-Glutamic acid induced signal (negative control; 100% CTL; 10 uM L-Glutamic acid+1 uM forskolin+0.5 mM IBMX+1% DMSO) and wells with vehicle controls without L-Glutamic acid as controls for non-specific changes in signal (positive control; 0% CTL; 0 uM L-Glutamic acid+1 uM forskolin+0.5 mM IBMX+1% DMSO).
# The analysis of the data is performed by the calculation the ratio between the emission at 665 nm and the emission at 615 nm (Em665/Em615 ratio). Thereafter the signals of the compounds are normalized using the positive and negative controls by the following formula:
# PoC=100×((Signal Sample−Positive Control)/(Negative Control−Positive Control))
# T1 sequence (Q14833 33-912): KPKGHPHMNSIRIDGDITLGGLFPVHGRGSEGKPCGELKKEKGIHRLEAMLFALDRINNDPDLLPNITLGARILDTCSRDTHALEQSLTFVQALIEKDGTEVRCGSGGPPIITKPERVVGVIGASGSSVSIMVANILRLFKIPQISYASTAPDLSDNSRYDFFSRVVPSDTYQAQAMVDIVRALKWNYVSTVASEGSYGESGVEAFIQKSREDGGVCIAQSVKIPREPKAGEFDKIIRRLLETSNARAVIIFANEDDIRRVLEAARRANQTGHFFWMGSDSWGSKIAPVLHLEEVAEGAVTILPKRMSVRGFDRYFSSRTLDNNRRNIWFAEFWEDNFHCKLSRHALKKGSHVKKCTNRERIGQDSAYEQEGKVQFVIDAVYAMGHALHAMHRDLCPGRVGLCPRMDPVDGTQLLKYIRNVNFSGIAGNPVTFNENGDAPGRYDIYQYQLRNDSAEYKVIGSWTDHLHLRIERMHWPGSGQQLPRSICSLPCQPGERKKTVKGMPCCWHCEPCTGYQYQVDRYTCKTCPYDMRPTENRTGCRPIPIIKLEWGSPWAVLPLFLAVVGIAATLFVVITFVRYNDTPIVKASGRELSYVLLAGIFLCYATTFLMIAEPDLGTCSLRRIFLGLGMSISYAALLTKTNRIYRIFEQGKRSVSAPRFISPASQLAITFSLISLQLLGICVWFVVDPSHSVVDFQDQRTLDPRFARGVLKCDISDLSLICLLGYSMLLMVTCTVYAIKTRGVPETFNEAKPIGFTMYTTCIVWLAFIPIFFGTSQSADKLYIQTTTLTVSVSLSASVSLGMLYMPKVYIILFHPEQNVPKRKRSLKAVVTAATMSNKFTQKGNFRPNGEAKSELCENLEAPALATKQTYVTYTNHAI
row,SMILES,pIC50
1,"CO[C@H](C)[C@H](NC(=O)c1cnc(C)cn1)c1nc2cc(C(F)(F)F)cnc2n1C(C)C [Example 12, N-[(1R,2R)-2-methoxy-1-[3-(propan-2-yl)-6-(trifluoromethyl)-3H-imidazo[4,5-b]pyridin-2-yl]propyl]-5-methylpyrazine-2-carboxamide]",8.40
2,"Cc1c(C#N)cnc2c1nc([C@@H](NC(=O)c1cnc(C(F)F)cn1)[C@@H](C)OC(F)F)n2C(C)C [Example 20, N-[(1R,2R)-1-[6-cyano-7-methyl-3-(propan-2-yl)-3H-imidazo[4,5-b]pyridin-2-yl]-2-(difluoromethoxy)propyl]-5-(difluoromethyl)pyrazine-2-carboxamide]",8.10
3,"Cc1cnc(C(=O)N[C@H](c2nc3cnc(C(F)(F)F)cc3n2C(C)C)C2CC2)cn1 [Example 43, N-[(S)-cyclopropyl[1-(propan-2-yl)-6-(trifluoromethyl)-1H-imidazo[4,5-c]pyridin-2-yl]methyl]-5-methylpyrazine-2-carboxamide]",7.62
